From publication PMC5511861, “DS16570511 is a small-molecule inhibitor of the mitochondrial calcium uniporter” (Cell Death Discovery, 2017)
One block for each compound: values may come before it.

How the values were obtained:
[1] = system: Hela cells; set-up: method as in PMID 17471180; conditions: cited from earlier work
[2] = system: cultured myocytes; set-up: method as in PMID 22425903; conditions: cited from earlier work
[3] = system: membrane potential of pig heart mitochondria; test: Mitochondrial membrane potential assay (JC-10) in pig heart mitochondria; assay type: biochemical; conditions: JC-10, 5 min incubation
Text: Next we analyzed the mechanism of action of DS16570511. The previous studies implicated two possible inhibitory mechanisms for the mitochondrial Ca^2+ uptake: (1) direct blockade of the calcium uniporter and (2) disruption of the membrane potential.[20],[21] Mitochondrial Ca^2+ uptake is mediated by electrical potential across the mitochondrial inner membrane, which is generated by the oxidative phosphorylation system. […] To examine effects on the mitochondrial membrane potential, fluorescent indicator JC-10 was used in mitochondria from pig heart.
(a) Effect of FCCP on Ca^2+ uptake of pig heart mitochondria. […] Relative membrane potential 0 or 100% is defined as value of 1 μM FCCP-treated mitochondria or vehicle-treated mitochondria, respectively. Data are mean with S.E.M. from three (a) or four (b) independent samples.
Pig heart mitochondria were prepared as described above and suspended in the swelling buffer containing 1 μM JC-10. The protein concentration of the solution was 5 mg/ml. Five minutes after incubation of the mitochondria with DS16570511 at room temperature, fluorescence intensities were measured by a FlexStation 3 (Molecular Devices, LLC, Sunnyvale, CA, USA) using the green channel (excitation/emission wavelength: 485/538 nm) or the red channel (excitation/emission wavelength: 485/612 nm).

[4] = system: Ca2+ uptake of rat heart mitochondria; test: Ca2+ uptake assay using isolated rat heart mitochondria (atomic absorbance spectrometer); assay type: biochemical; conditions: 100 μM CaCl2; read-out: IC50, inhibition of Ca2+ uptake of rat heart mitochondria
Description: (§1) We then asked whether DS16570511 inhibits Ca^2+ uptake in isolated mitochondria from animal heart. An atomic absorbance spectrometer-based detection method was employed to analyze intramitochondrial Ca^2+ levels. We prepared freshly isolated mitochondria from pig heart, and the mitochondria were incubated with 100 μM CaCl2.
(§2) Figure 3 DS16570511 inhibits Ca^2+ uptake in isolated heart mitochondria. (a) Effect of RuR on Ca^2+ uptake of pig heart mitochondria. […] Data are mean with S.E.M. from three independent samples. (b) Inhibition rate of RuR or DS16570511 on Ca^2+ uptake of pig heart mitochondria. Inhibition 0 or 100% is defined as a value of Ca^2+-untreated mitochondria or Ca^2+-treated mitochondria, respectively. Data are mean with S.E.M. from three independent samples. (c) Inhibition rate of RuR or DS16570511 on Ca^2+ uptake of rat heart mitochondria. Data are mean with S.E.M./variation from three or two independent samples for DS16570511 or RuR, respectively.
Mitochondria were isolated by using the mitochondria isolation kit and then dissolved in the swelling buffer. The protein concentration of the mitochondrial solution was 5 mg/ml. […] The solution was then diluted by water, and Ca^2+ concentration of the solution was measured by atomic absorbance spectrometer (Hitachi High-Technologies Corporation, Z-2710, Tokyo, Japan).

[5] = system: Ca2+ uptake of pig heart mitochondria; test: Ca2+ uptake assay using isolated pig heart mitochondria (atomic absorbance spectrometer); assay type: biochemical; conditions: 100 μM CaCl2
Description: as §1
as §2, with “(a)” for “Figure 3 DS16570511 inhibits Ca^2+ uptake in isolated heart mitochondria. (a)”
Mitochondria were isolated by using the mitochondria isolation kit and then dissolved in the swelling buffer. The protein concentration of the mitochondrial solution was 5 mg/ml. Thirty minutes after application of CaCl2 (final concentration of 100 μM) to the solution, the mitochondria were collected by centrifugation (3000 g) at 4 °C. The pellets were resuspended in the swelling buffer containing 1 μM RuR. After collection of the mitochondria by centrifugation (3000 g), the pellets were dried and dissolved by 40 μl of sulfuric acid at 95 °C.

[6] = system: recombinant MCU multimers; set-up: method as in PMID 26285678; conditions: lipid bilayer; cited from earlier work
[7] = biological target: T1, mitochondrial calcium uniporter (Homo sapiens, UniProt Q8NE86); test: Ca2+ uptake of isolated mitochondria from HEK293A cells (aequorin luminescence); assay type: biochemical; set-up: isolated mitochondria from HEK293A cells were used; endogenous in cells; host or cells: mitochondria isolated from HEK293A cells stably expressing mitochondria-targeted aequorin
T1 sequence (Q8NE86 51-351): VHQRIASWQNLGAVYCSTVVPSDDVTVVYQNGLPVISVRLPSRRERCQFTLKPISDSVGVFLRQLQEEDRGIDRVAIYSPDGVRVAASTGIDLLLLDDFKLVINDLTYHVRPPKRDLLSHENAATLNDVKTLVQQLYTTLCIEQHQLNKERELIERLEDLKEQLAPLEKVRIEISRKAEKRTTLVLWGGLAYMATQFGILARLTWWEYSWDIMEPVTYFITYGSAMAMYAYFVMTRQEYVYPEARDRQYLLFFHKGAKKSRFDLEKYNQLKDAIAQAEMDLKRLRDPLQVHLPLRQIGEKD
T1 sequence (Q9H4I9 48-107 partner limits assumed): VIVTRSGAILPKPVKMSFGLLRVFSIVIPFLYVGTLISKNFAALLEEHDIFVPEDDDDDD
Description: Mitochondrial Ca^2+ uptake activity is regulated by cytosolic protein kinase signaling,[19] raising the possibility that HTS hits contained indirect inhibitors of the uniporter, such as inhibitors of cytosolic signaling. To examine the direct inhibitory effect of the compounds on the mitochondrial Ca^2+ uptake, isolated mitochondria from HEK293A cells were used. Ca^2+ uptake of the isolated mitochondria was observed as a rapid increase in the luminescence level after application of 100 μM Ca^2+ (Figure 2a).
Figure 2 DS16570511 inhibits Ca^2+ uptake in isolated mitochondria from HEK293A cells. (a) Representative raw data of Ca^2+ uptake in isolated mitochondria. (b) Effect of DS16570511 or Ru360 on mitochondrial Ca^2+ uptake. The area under the curve of temporal aequorin activities is used for calculation of inhibitory activities. Inhibition 0 or 100% is defined as a value of […], respectively. Data are mean with S.E.M. from three independent samples.
To monitor Ca^2+ uptake activity of isolated mitochondria, mitochondria were prepared from the cells (1×10^8 cells) stably expressing mitochondria-targeted aequorin by using a mitochondria isolation kit. […] The luminescence levels were detected as described above.

Compound: N=C(N)SCCc1ccc(OCc2ccc([N+](=O)[O-])cc2)cc1 [KB-R7943]
- effect on agonist-induced mitochondrial Ca2+ influx [1]: inhibit

Compound: CS(=O)(=O)O.CS(=O)(=O)O.O=S1(=O)CCN(Cc2cc(NCC3CCOCC3)c3[nH]c(-c4ccccc4)cc3c2)CC1 [NecroX-5]
- effect on Ca2+ accumulation [2]: attenuate

Compound: N#CC(C#N)=NNc1ccc(OC(F)(F)F)cc1 [FCCP, carbonyl cyanide-p-trifluoromethoxyphenylhydrazone]
- effect on mitochondrial membrane potential [3]: disruption of the potential in a dose-dependent manner

- IC50 [4]: 100 nM
- IC50 ([5]; read-out: IC50, inhibition of Ca2+ uptake of pig heart mitochondria): 30 nM
Compound: N.N.N.N.N.N.N.N.N.N.N.N.N.N.[Cl-].[Cl-].[Cl-].[Cl-].[Cl-].[Cl-].[O-2].[O-2].[Ru+3].[Ru+3].[Ru+4] [RuR, Ruthenium Red]
- effect on Ca2+ uptake activity of isolated pig heart mitochondria (in words) [5]: fully blocked
- effect on Ca2+ channel activity mediated by recombinant MCU multimers [6]: inhibited

Compound: N.N.N.N.N.N.N.N.O=C[O-].O=C[O-].[O-2].[Ru+3].[Ru+4] [Ru360, Ruthenium 360, reference compound]
- effect on mitochondrial membrane potential [3]: no effect
- IC50 [7]: 20 nM
